We go through four compounds from US11220491B2, “Photoprotective compositions containing Malassezia-derived compounds and/or chemical analogs thereof” (Versicolor Technologies, LLC, priority 2018, dated 2022).

The test system of data set [1] is WM115 cells. The data set is described as follows: CellTiter-Glo cell viability assay (Example 9). Type of data set: cell-based. Particulars: 100, 10, 1 μM; 6, 24, 48, 72 hours. Here is the method: (§1) CellTiter-Glo® 2.0 assay was purchased from Promega. Cell seeding, preparation of the compound source plate, and exposure of cells to test compounds were performed as described in Example 8.
(§2) CellTiter-Glo® reagents were thawed and equilibrated to room temperature before the experiment. 40 μL of CellTiter-Glo® reagent was then added to each well for detection (at 1:1 ratio to culture medium). The plates were then incubated at room temperature for 30 minutes and read using EnSpire (PerkinElmer) plate reader. The remaining activity was calculated according to the following formula: Remaining Activity (%)=100%×(Lumsample−Lumbkg)/(Lumvehicle−Lumbkg).
(ATP-based viability assays read luminescence as a measure of living cells.)

Data set [2] concerns WM115 cells. The data set is described as follows: Annexin V assay, additional evaluation (Example 8). Particulars: 100, 10, 1 μM; 6, 24, 48, 72 hours. Format: cell-based. Here is the method: (§3) To further investigate the impact of test compounds on apoptosis, multiple readouts, covering different stages of apoptosis, were carried out on both MeWo and WM115 cells. Both cell types were treated with test compounds at 3 doses (100 μM, 10 μM, and 1 μM). Staurosporine was used as a positive control. […] The test compounds evaluated were CV-8684. CV-8685, and CV-8688.
(§4) Cell seeding was performed as discussed above with the following exceptions: the final cell density was 4,000 cells/well for 6-hour and 24-hour detections, whereas 2,000 cells/well were used for 48-hour and 72-hour detections. For each time point. 384-well clear bottom plates (Corning 3712) and solid white bottom plates (Corning 3570) were prepared. The plates were incubated as discussed above.
(§5) For preparation of the compound source plate, each test compound was dissolved in DMSO to 10 mM stock. Two additional concentrations were generations by 10-fold dilution to 1 mM and 0.1 mM. Staurosporine was used as positive control and 1% DMSO was employed as vehicle (negative) control. The compound source plate was spun at room temperature at 1,000 RPM for 1 minute and agitated using a plate shaker for 2 minutes.
(§6) 400 nL of test compound was transferred from the compound source plate to 384-well culture plates using Echo550 liquid handler. After 6, 24, 48, and 72 hours, the plates were removed from the incubator for detections.
(§7) Culture media was removed and cells were washed twice with PBS. 20 μL of pre-mixed annexin V-FITC working solution was added to each well. The cells were incubated at room temperature for 20 minutes. Plates were read using Acumen eX3 to count the number of FITC-positive cells. The relative activity was calculated according to the following formula: Relative Activity (%)=100%×(Countsample/Countvehicle).

Data set [3] relates to MeWo cells. The data set is described as follows: Annexin V assay, additional evaluation (Example 8). Particulars: 100, 10, 1 μM; 6, 24, 48, 72 hours. Format: cell-based. Here is the method:
as §3, §4, §5, §6, §7

Data set [4] concerns the target T1, arylhydrocarbon receptor (AhR) (Homo sapiens, UniProt P35869).
T1 sequence (P35869 11-848): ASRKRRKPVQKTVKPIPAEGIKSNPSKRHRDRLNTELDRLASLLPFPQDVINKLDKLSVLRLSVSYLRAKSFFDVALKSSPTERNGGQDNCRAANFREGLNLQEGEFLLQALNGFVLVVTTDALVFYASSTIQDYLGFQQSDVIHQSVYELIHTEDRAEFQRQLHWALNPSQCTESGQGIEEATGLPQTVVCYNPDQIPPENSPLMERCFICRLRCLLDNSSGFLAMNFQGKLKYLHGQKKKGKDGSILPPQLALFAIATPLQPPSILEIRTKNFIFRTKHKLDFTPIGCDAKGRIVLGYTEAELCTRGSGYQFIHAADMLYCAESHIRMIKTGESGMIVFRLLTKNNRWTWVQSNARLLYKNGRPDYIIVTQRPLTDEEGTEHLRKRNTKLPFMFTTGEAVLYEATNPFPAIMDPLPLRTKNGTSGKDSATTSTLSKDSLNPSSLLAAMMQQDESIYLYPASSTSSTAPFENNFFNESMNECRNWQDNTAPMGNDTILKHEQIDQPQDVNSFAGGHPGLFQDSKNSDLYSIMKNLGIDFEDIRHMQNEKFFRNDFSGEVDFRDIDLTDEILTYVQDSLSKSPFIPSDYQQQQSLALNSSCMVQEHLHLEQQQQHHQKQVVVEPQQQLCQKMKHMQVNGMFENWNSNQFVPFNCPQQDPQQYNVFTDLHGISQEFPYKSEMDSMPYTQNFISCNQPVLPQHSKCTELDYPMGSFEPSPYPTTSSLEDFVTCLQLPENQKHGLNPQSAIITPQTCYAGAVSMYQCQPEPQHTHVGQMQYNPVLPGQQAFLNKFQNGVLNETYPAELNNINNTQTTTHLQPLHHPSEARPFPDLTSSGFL
Put plainly: HepG2-AhR-Luciferase assay. Conditions: EC50 (uM), 24 hours of treatment.
Protocol: HepG2-AhR-Luc cells were purchased from Pharmaron, One-Glo Luciferase assay system was purchased from Promega. DMEM was purchased from Hyclone, and penicillin/streptomycin was purchased from Solabio.
Culture media for stably transfected HepG2 cells was prepared by supplementing DMEM with high glucose and L-glutamine, as well as 10% FBS.
HepG2-AhR-Luc cells were cultured in T-75 flasks at 37° C., 5% CO2, and 95% relative humidity. Cells were allowed to reach 80-90% confluence before detachment and splitting.
Cultivated cells were rinsed with 5 mL PBS. PBS was aspirated away, 1.5 mL trypsin was added to the flask, and cells were incubated at 37° C. for approximately 5 minutes or until the cells detached and floated. Trypsin was inactivated by adding excess serum-containing media.
The cell suspension was transferred to a conical tube and centrifuged at 120 g for 10 minutes to pellet the cells. Cells were resuspended in seeding media at a proper density. 40 μL of cells were transferred to a 384-well culture plate (5×10^3 cells/well). Plates were placed in the incubator at 37° C. for 24 hours.
Afterward, stock solutions of test compounds and omeprazole positive control were prepared. Compound solutions were transferred into the assay plate using Echo550. The plate was then placed back into the incubator for compound treatment.
Later, after 24 hours of treatment, the plate was removed from the incubator and allowed to cool at ambient temperature. 30 μL One-Glo reagent equal to that of the culture medium was added in each well. Cells were allowed to lyse for at least 3 minutes, and then measured in a luminometer.
Dose responses were graphed using the non-linear regression analysis in XLfit and EC50 values were also calculated.

Data set [5] deals with WM115 cells. The data set is described as follows: Cell morphology after treatment (Example 6). Format: cell-based. Conditions: 100 μM, 6 hours.
For data set [6], the system named is MeWo cells. Put plainly: CellTiter-Glo cell viability assay (Example 9). Type of data set: cell-based. Conditions: 100, 10, 1 μM; 6, 24, 48, 72 hours. Here is the method: as §1, §2
In data set [7] the test system is WM115 cells. The data set is described as follows: Lactate dehydrogenase (LDH) release assay (Example 10). Type of data set: cell-based. Particulars: 100, 10, 1 μM; 6, 24, 48, 72 hours. Here is the method: (§8) The LDH assay quantitatively measures lactate dehydrogenase (“LDH”) released into the media from damaged cells as a biomarker for cytotoxicity and cytolysis.
(§9) CytoTox-ONE™ Homogenous Membrane Integrity Assay was purchased from Promega. Cell seeding, preparation of the compound source plate, and exposure of cells to test compounds were performed as described in Example 8.
(§10) Plates were then centrifuged at 1,000 RPM for 1 minute. 20 μL of cell culture medium was transferred into a new 384-well black solid plate. Then, 20 μL of CytoTOX-ONE™ was added into each well and incubated at room temperature for 10 minutes. Afterward, 10 μL of stop solution were added to each well, and the plates were agitated at 500 rpm for 1 minute. Plates were read using an excitation wavelength of 560 nm and an emission wavelength of 590 nm on EnSpire. The relative activity was calculated according to the following formula: Relative Activity (%)=100%×(Lumsample−Lumbkg)/(Lumvehicle−Lumbkg).

Data set [8] deals with MeWo cells. The description is as above. Format: cell-based. Particulars: 100, 10, 1 μM; 6, 24, 48, 72 hours. How it is done:
as §8, §9, §10

Data set [9] concerns MeWo cells. The data set is described as follows: Cell morphology after treatment (Example 6). Conditions: 100 μM, 6 hours. Format: cell-based.
The test system of data set [10] is MeWo cells. The data set is described as follows: Preliminary annexin V-FITC assay (Example 7). Format: cell-based. Particulars: 6-hour treatment. How it is done:
MeWo (ATCC® HTB-65™) and WM115 (ATCC® CRL-1675) cells were purchased from ATCC (Manassas, Va.) and maintained in the following: for MeWo:DMEM supplemented with 10% FBS; for WM115: RPMI 1640 supplemented with 10% FBS (10% FBS, 1% stabilized antibiotic anti-mycotic solution).
During the first set of studies, both MeWo and WM115 cells were treated with test compounds at 10 doses starting from 100 μM with 3-fold dilution. Staurosporine was used as positive control. After 6-hour treatment, cell apoptosis was assessed using an annexin V assay. The test compounds evaluated were CV-8684, CV-8685, CV-8686, CV-8687, and CV-8688.
For cell seeding, cells were harvested and the cell number was determined using Countess® cell counter. Cells were then diluted with culture medium to the desired density. 40 μL of cell suspension per well was added to the required number of wells in a 384-well plate (Corning 3712—clear bottom plate). The final cell density was 6,000 cells/well. After plating, the plates were incubated at 37° C., and 5% CO2 overnight.
For preparation of compound source plate, each test compound was dissolved in DMSO to 10 mM stock. 3-fold serial dilution was performed using an EVO200™ liquid handler (TECAN) to generate ten concentrations of test compound. 0.1% DMSO was employed as vehicle (negative) control. The compound source plate was then spun at room temperature at 1,000 RPM for 1 minute and agitated using a plate shaker for 2 minutes.
For compound treatment, 40 nL of compound were transferred from the compound source plate to the 384-well culture plate using liquid handler Echo550 (LabCyte Inc.). After 6-hour incubation, the plates were removed from the incubator for detection.
For the preliminary annexin V assay, the plates were removed from the incubator and allowed to equilibrate at room temperature for 15 minutes. Culture media was then removed. 20 μL of pre-mixed annexin V-FITC and Hoechst33342 dye working solution were added to each well. The cells were then incubated at room temperature for 20 minutes. […] Afterward, the plate was read using an Acumen eX3 plate reader. The relative activity was calculated according to the following formula: Activity (%)=100%×(CountAnnexin V/CountTotal cell), and EC50 was calculated using GraphPad Prism (v. 5.01).

For data set [11] the following is noted: cited from earlier work.
Another data set has as its system Candida albicans. Conditions: cited from earlier work.
For a further data set, the system named is staphylococci. Conditions: cited from earlier work.

pEC50: −log10 of the molar value. Read-outs that look alike come from different tables or passages of the source.

For the compound `O=Cc1c(Cc2c[nH]c3ccccc23)[nH]c2ccccc12` [CV-8684, Malassezin], the “inhibition of cell viability” value with WM115 cells [1] and with MeWo cells [6] was “dose-dependent inhibition of cell viability” throughout. Besides, the “apoptosis induction (annexin V binding)” value in the data set on WM115 cells [2] and with MeWo cells [3] was “induced apoptosis at the highest concentration tested after 6 hours of treatment” in each case. The same compound registered an EC50 in [4] (Table 1) of 4.19 µM. For the same compound, the cell morphology result in the data set on WM115 cells [5] and in the data set on MeWo cells [9] was “significantly affected” in each case. The LDH release result in the data set on WM115 cells [7] and in the data set on MeWo cells [8] was “did not induce significant release” in each case.

As to `c1ccc2c(c1)[nH]c1cc3c(cc12)[nH]c1ccccc13` [CV-8685, indolo[3,2-b] carbazole], in the data set on WM115 cells [1], the “inhibition of cell viability” value is “inhibitory effect on WM115 cell viability in a dose-dependent manner only after 24-hour treatment”. In addition, the “apoptosis induction (annexin V binding)” value with WM115 cells [2] is listed as “showed the induction effect with 24 hours of treatment”; in the data set with MeWo cells [3] it was 48 hours of treatment appeared to elicit apoptosis. In addition, the figures for the EC50 in data set [4] (Table 1) and in data set [4] (Table 2) were 6.6 µM and 15.2 µM, respectively. In addition, in the data set with WM115 cells [5], the cell morphology result is “only affect WM115”. In addition, the LDH release result in the data set with WM115 cells [7] is given as “dose-dependent induction effect on LDH release”.

As for `CC(c1[nH]c2ccccc2c1C=O)c1c[nH]c2ccccc12` (stereo not shown) [CV-8688], the “inhibition of cell viability” value in the data set with WM115 cells [1] and with MeWo cells [6] was “inhibited viability of both cell types in a dose-dependent manner” each time. In addition, the “apoptosis induction (annexin V binding)” value in the data set on WM115 cells [2] and in the data set on MeWo cells [3] was “showed the induction effect within 6 hours of treatment in a dose-dependent manner” each time. Further, a half-maximal effect in data set [4] (Table 1) (EC50) was put at 19.9 µM. The cell morphology result with WM115 cells [5] and in the data set on MeWo cells [9] was “significantly affected” throughout. Further, the LDH release result in the data set with WM115 cells [7] and in the data set with MeWo cells [8] was “induced LDH release at the highest concentration tested” in each case. In addition, the “annexin V staining” value with MeWo cells [10] (preliminary screen) was “markedly increased annexin V staining”. The pEC50 in the data set on MeWo cells [10] (Homo sapiens, MeWo, 10 doses starting from 100 μM, read-out: EC50 of annexin V staining) was 6.04.

As for Pityriacitrin, the SPF in data set [11] (1.25% cream) was 1.4; in data set [11] (2.5% cream) it was 1.5; in data set [11] (5% cream) it was 1.7. The UV-protective effect result in the data set on Candida albicans and in the data set on staphylococci was “UV-protective effect” throughout. Besides, the toxicity entry in the data set with Candida albicans and in the data set on staphylococci was “no toxicity” each time.

One may read the EC50 as the concentration that produces a half-maximal response. What is called pEC50 is the negative decadic logarithm of the EC50, by convention in mol/L.
